Reference: PubChem BioAssay (NCI)
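Step 1: Grow cells in 96-well plates. Step 2: Expose to compound for 48 hours at 5 concentrations. Step 3: Interpolate endpoints linearly; if unreached, use highest concentration. TGI marks complete inhibition of growth.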

Columns and labels:
Assay in all cases: NCI tumour cell line growth inhibition, 48 h
[1] = tested on: 786-0 renal
[2] = tested on: A549 NSCLC
[3] = tested on: ACHN renal
[4] = tested on: CAKI-1 renal
[5] = tested on: CCRF-CEM leukemia
[6] = tested on: COLO 205 colon
[7] = tested on: DLD-1 colon
[8] = tested on: DMS 273 small cell lung
[9] = tested on: EKVX NSCLC
[10] = tested on: HCT-116 colon
[11] = tested on: HCT-15 colon
[12] = tested on: HL-60(TB) leukemia
[13] = tested on: HOP-62 NSCLC
[14] = tested on: HOP-92 NSCLC
[15] = tested on: HT29 colon
[16] = tested on: IGROV1 ovarian
[17] = tested on: K-562 leukemia
[18] = tested on: KM12 colon
[19] = tested on: KM20L2 colon
[20] = tested on: LOX IMVI melanoma
[21] = tested on: LXFL 529 NSCLC
[22] = tested on: M14 melanoma
[23] = tested on: M19-MEL melanoma
[24] = tested on: MALME-3M melanoma
[25] = tested on: MOLT-4 leukemia
[26] = tested on: NCI-H226 lung
[27] = tested on: NCI-H23 lung
[28] = tested on: NCI-H460 lung
[29] = tested on: NCI-H522 lung
[30] = tested on: OVCAR-3 ovarian
[31] = tested on: OVCAR-4 ovarian
[32] = tested on: OVCAR-5 ovarian
[33] = tested on: OVCAR-8 ovarian
[34] = tested on: RPMI-8226 leukemia
[35] = tested on: RXF 393 renal
[36] = tested on: RXF-631 renal
[37] = tested on: SF-268 CNS
[38] = tested on: SF-295 CNS
[39] = tested on: SF-539 CNS
[40] = tested on: SK-MEL-2 melanoma
[41] = tested on: SK-OV-3 ovarian
[42] = tested on: SN12C renal
[43] = tested on: SNB-19 CNS
[44] = tested on: SNB-75 CNS
[45] = tested on: SNB-78 CNS
[46] = tested on: SR leukemia
[47] = tested on: SW-620 colon
[48] = tested on: UACC-257 melanoma
[49] = tested on: UACC-62 melanoma
[50] = tested on: UO-31 renal
[51] = tested on: XF 498 CNS
[52] = tested on: A498 renal
[53] = tested on: DMS 114 small cell lung
[54] = tested on: HCC-2998 colon
[55] = tested on: HOP-18 NSCLC
[56] = tested on: SK-MEL-28 melanoma
[57] = tested on: SK-MEL-5 melanoma
[58] = tested on: TK-10 renal
[59] = tested on: U251 CNS

Measured: TGI

O=c1cccccc1NCCCCCCCNc1cccccc1=O
32.8 µM: [51]
89.8 µM: [46]
55.2 µM: [29]
30 µM: [12]
53.4 µM: [25]
67.2 µM: [5]
84.8 µM: [23]
84.5 µM: [49]
25.8 µM: [35]
97.8 µM: [14]
55.1 µM: [34]
80.3 µM: [50]
45.7 µM: [48]
74.6 µM: [22]
35 µM: [36]
not listed: [52] | [53] | [54] | [55] | [56] | [57] | [58] | [59]
> 100 µM: all other assays above

Cc1ccc(Oc2ccccc2N)cc1
22.1 µM: [59]
19.2 µM: [6]
26.2 µM: [57]
36 µM: [10]
30.4 µM: [19]
34.2 µM: [54]
40.1 µM: [39]
86.8 µM: [1]
55 µM: [30]
80.2 µM: [56]
45 µM: [12]
60.6 µM: [44]
44.9 µM: [50]
not listed: [3] | [4] | [23] | [26] | [29]
> 100 µM: all other assays above
